Literature values in patent publication US20040006100A1, “Monotherapy for the treatment of parkinson's disease with cyclooxygenase-2 (COX 2) inhibitor(S)” (priority 2002, published 2004).

N[C@@H](Cc1ccc(O)c(O)c1)C(=O)O [levodopa]
fraction of levodopa that reaches the brain (levodopa alone administered orally): about 1%
fraction of orally administered levodopa metabolized by decarboxylase and then unable to cross the BBB (oral administration, without carbidopa): Up to 99%
